Data taken from publication PMC9389255 (Heliyon, 2022).

How the values were obtained:
[1] = system: α-Glucosidase from Saccharomyces cerevisiae; test: In vitro inhibition assay for α-glucosidase activity; type: biochemical
[2] = Precipitation of DMSO-dissolved compounds upon mixing in phosphate buffer; type: physicochemical
[3] = system: α-Glucosidase from Saccharomyces cerevisiae; test: Inhibitory kinetic analysis; type: biochemical; details: Lineweaver-Burk plots
[4] = printed in the column IC50 against α-amylase
[5] = printed in the column IC50 against α-glucosidase

For `O=c1cc(-c2ccc(O)cc2)oc2cc(O)cc(O)c12` [Apigenin], the “inhibitory activity on α-glucosidase” value ([1]; at ≤1000 μM) was “no inhibitory activity”, the “Precipitated at (in vial)” value [2, 4] was “Precipitated at 1000 μM (in vial)” and the “Precipitated at (in vial)” value [2, 5] was “Precipitated at 1000 μM (in vial)”.
With `O=c1c(O)c(-c2ccc(O)c(O)c2)oc2cc(O)cc(O)c12` [Quercetin] the “inhibition pattern against α-glucosidase” value [3] was “mixed inhibition patterns”.
For `O=c1cc(-c2ccc(O)c(O)c2)oc2cc(O)cc(O)c12` [Luteolin], the “inhibition pattern against α-glucosidase” value [3] was “mixed inhibition patterns”.
In the case of `O=c1cc(-c2ccccc2)oc2cc(O)cc(O)c12` [Chrysin], the “inhibitory activity on α-glucosidase” value ([1]; at ≤400 μM) is reported as “no inhibitory activity”, the “Precipitated at (in vial)” value [2, 4] is reported as “Precipitated at 400 μM (in vial)” and the “Precipitated at (in vial)” value [2, 5] is reported as “Precipitated at 400 μM (in vial)”.
For `C[C@H]1O[C@H](O[C@H]2[C@H](O)[C@@H](O)[C@@H](O[C@H]3[C@H](O)[C@@H](O)C(O)O[C@@H]3CO)O[C@@H]2CO)[C@H](O)[C@@H](O)[C@@H]1N[C@H]1C=C(CO)[C@@H](O)[C@H](O)[C@H]1O` (stereo partly shown) [Acarbose, reference compound], the “inhibition pattern against α-glucosidase” value [3] was “competitive inhibition pattern”.
In the case of `O=c1c(O)c(-c2ccc(O)cc2)oc2cc(O)cc(O)c12` [Kaempferol], the “inhibitory activity on α-glucosidase” value ([1]; at ≤80 μM) is reported as “no inhibitory activity”, the “Precipitated at (in vial)” value [2, 4] is reported as “Precipitated at 80 μM (in vial)” and the “Precipitated at (in vial)” value [2, 5] is reported as “Precipitated at 80 μM (in vial)”.
With `O=c1c(O)c(-c2cc(O)c(O)c(O)c2)oc2cc(O)cc(O)c12` [Myricetin] the “inhibition pattern against α-glucosidase” value [3] was “mixed inhibition patterns”.
